Measured values as given in patent US9469615B2, “Quinoxalines and AZA-quinoxalines as CRTH2 receptor modulators” (Merck Sharp & Dohme Corp., priority 2010, dated 2016).

target: T1, hCRTH2 (Homo sapiens, UniProt Q9Y5Y4); test: Radioligand binding assay ([3H]PGD2 competition, HEK-hCRTH2 membranes); conditions: [3H]PGD2 binding, rated A-E (Table A)
T1 construct: expressed in transfected cells; host or cells: HEK (human embryonic kidney) cells expressing hCRTH2; membrane preparation
T1 sequence (Q9Y5Y4 1-395): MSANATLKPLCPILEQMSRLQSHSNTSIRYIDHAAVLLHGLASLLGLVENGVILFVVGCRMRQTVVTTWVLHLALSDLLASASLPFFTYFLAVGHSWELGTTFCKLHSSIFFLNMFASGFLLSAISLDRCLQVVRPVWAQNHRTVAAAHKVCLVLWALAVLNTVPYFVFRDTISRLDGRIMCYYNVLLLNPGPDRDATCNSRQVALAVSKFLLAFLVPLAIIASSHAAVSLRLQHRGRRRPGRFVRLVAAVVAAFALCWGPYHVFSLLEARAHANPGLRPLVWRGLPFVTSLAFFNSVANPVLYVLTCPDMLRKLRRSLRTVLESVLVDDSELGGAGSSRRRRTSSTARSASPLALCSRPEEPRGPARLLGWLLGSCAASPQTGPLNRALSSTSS
Outline: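 Competition against 3.0 nM [3H]PGD2 was run for 60 min at room temperature in pH 7.4 Tris-HCl buffer with EDTA, 2 mM MnCl2 and 1% DMSO, using 8-20 μg HEK-hCRTH2 membrane protein. 10 μM PGD2 set non-specific binding; filter-bound counts were read by scintillation.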

Ki | SMILES
2.1 to 20 nM | C[C@@H](NC(=O)c1ccc2nc(-c3ccc(Cl)cc3)c(CC3CCC(C(=O)O)C3)nc2c1)c1ccc(F)cc1 (mixture of isomers) [compound 28, 3-((3-(4-chlorophenyl)-7-((R)-1-(4-fluorophenyl)ethylcarbamoyl)quinoxalin-2-yl)methyl)cyclopentanecarboxylic acid]
2.1 to 20 nM | C[C@@H](NC(=O)c1ccc2nc(-c3ccc(F)cc3)c(CCCCC(=O)O)nc2c1)c1ccc(F)cc1 [compound 110, 3-(4-fluorophenyl)-7-[[[1(R)-(4-fluorophenyl)ethyl]amino]carbonyl]-2-quinoxalinepentanoic acid]
20.1 to 200 nM | O=C(O)CCCCc1nc2cc(C(=O)N3CCC4(CC3)CNC4)ccc2nc1-c1ccccc1 [15H, 5-[7-(2,7-diazaspiro-[3.5]non-7-ylcarbonyl)-3-phenylquinoxalin-2-yl]pentanoic acid]
0.1 to 2 nM | O=C(O)CCCCc1nc2cc(C(=O)N3CC(c4ccccc4)C3)ccc2nc1-c1ccccc1 [compound 172, 3-phenyl-7-[(3-phenyl-1-azetidinyl)carbonyl]-2-quinoxalinepentanoic acid]
2.1 to 20 nM | O=C(O)CCCCc1nc2cc(C(=O)NCc3ccc(Cl)cc3)ccc2nc1-c1ccc(C(F)(F)F)cc1 [compound 155, 7-[[[(4-chlorophenyl)methyl]amino]carbonyl]-3-[4-(trifluoromethyl)phenyl]-2-quinoxalinepentanoic acid]
20.1 to 200 nM | CC(NC(=O)c1cnc2nc(-c3ccccc3)c(CCCCC(=O)O)nc2c1)c1ccncc1 (centres unmarked) [14H, 5-{3-phenyl-7-[(1-pyridin-4-ylethyl)carbamoyl]pyrido[2,3-b]pyrazin-2-yl} pentanoic acid]
2.1 to 20 nM | O=C(O)CCCCc1nc2cc(C(=O)NCc3ccccn3)ccc2nc1-c1ccccc1 [15AF, 5-{3-phenyl-7-[(pyridin-2-ylmethyl)carbamoyl]quinoxalin-2-yl} pentanoic acid]
2.1 to 20 nM | COC(=O)c1ccc2nc(-c3ccc(C(F)(F)F)cc3)c(CCCCC(=O)O)nc2c1 [3AG, 7-(methoxycarbonyl)-3-[4-(trifluoromethyl)phenyl]-2-quinoxalinepentanoic acid]
2.1 to 20 nM | CC(CCCc1nc2cc(C(=O)N[C@H](C)c3ccc(F)cc3)ccc2nc1-c1ccc(Cl)cc1)C(=O)O (stereo partly drawn) [compound 166, 3(4-chlorophenyl)-7-[[[1(R)-(4-fluorophenyl)ethyl]amino]carbonyl]-alpha-methyl-2-quinoxalinepentanoic acid]
201 to 700 nM | O=C(O)CCCCc1nc2cc(C(=O)N3CC4(CCNCC4)C3)ccc2nc1-c1ccccc1 [15i, 5-[7-(2,7-diazaspiro-[3.5]non-2-ylcarbonyl)-3-phenylquinoxalin-2-yl]pentanoic acid]
2.1 to 20 nM | COC(=O)c1ccc2nc(-c3ccccc3)c(CCCCC(=O)O)nc2c1 [6H, 7-(methoxycarbonyl)-3-phenyl-2-quinoxalinepentanoic acid]
2.1 to 20 nM | O=C(O)CCCCc1nc2cc(C(=O)N3CCNC(Cc4ccccc4)C3)ccc2nc1-c1ccccc1 (centres unmarked) [15K, 5-{7-[(3-benzylpiperazin-1-yl)carbonyl]-3-phenyl-quinoxalin-2-yl}pentanoic acid]
20.1 to 200 nM | O=C(O)CCCCc1nc2ccc(C(=O)NCc3cccc(Cl)c3)cc2nc1-c1ccccc1 [compound 8]

same assay, conditions: [3H]PGD2 binding, values in text

Ki | SMILES
152 nM | O=C(O)CCCCc1nc2cc(C(=O)N3CCC4(CC3)CNC4)ccc2nc1-c1ccccc1 [15H, 5-[7-(2,7-diazaspiro-[3.5]non-7-ylcarbonyl)-3-phenylquinoxalin-2-yl]pentanoic acid]
283 nM | O=C(O)CCCCc1nc2cc(C(=O)N3CC4(CCNCC4)C3)ccc2nc1-c1ccccc1 [15i, 5-[7-(2,7-diazaspiro-[3.5]non-2-ylcarbonyl)-3-phenylquinoxalin-2-yl]pentanoic acid]

same assay, conditions: [3H]PGD2 competition, Table B

Ki | SMILES
0.1 to 2 nM | CS(=O)(=O)N1CCC(NC(=O)c2ccc3nc(-c4ccccc4)c(CCCCC(=O)O)nc3c2)c2ccccc21 (centres unmarked) [compound 575, 5-(7-((1-(methylsulfonyl)-1,2,3,4-tetrahydroquinolin-4-yl)carbamoyl)-3-phenylquinoxalin-2-yl)pentanoic acid]
2.1 to 20 nM | CC(CCCc1nc2cc(C(=O)N3CCN(c4ccccc4)CC3)ccc2nc1-c1ccccc1)C(=O)O (centres unmarked) [compound 462, 2-methyl-5-(3-phenyl-7-(4-phenylpiperazine-1-carbonyl)quinoxalin-2-yl)pentanoic acid]
0.1 to 2 nM | O=C(O)CCCCc1nc2cc(C(=O)N3CC[C@H](c4ccc(F)cc4)C3)ccc2nc1-c1ccc(Cl)cc1 [compound 559, (R)-5-(3-(4-chlorophenyl)-7-(3-(4-fluorophenyl)pyrrolidine-1-carbonyl)quinoxalin-2-yl)pentanoic acid]
2.1 to 20 nM | O=C(O)CCCCc1nc2cc(C(=O)N3CCC(n4ccc5ccccc54)CC3)ccc2nc1-c1ccc(Cl)cc1 [compound 338, 5-(7-(4-(1H-indol-1-yl)piperidine-l-carbonyl)-3-(4-chlorophenyl)quinoxalin-2-yl)pentanoic acid]
2.1 to 20 nM | O=C(O)CCCCc1nc2cc(C(=O)N3CCC(n4cccn4)CC3)ccc2nc1-c1ccc(Cl)cc1 [compound 342, 5-(7-(4-(1H-pyrazol-1-yl)piperidine-1-carbonyl)-3-(4-chlorophenyl)quinoxalin-2-yl)pentanoic acid]
2.1 to 20 nM | CC(CCCc1nc2cc(C(=O)N[C@H](C)c3ccc(Cl)cc3)ccc2nc1-c1ccccc1)C(=O)O (stereo partly drawn) [compound 460, 5-(7-(((R)-1-(4-chlorophenyl)ethyl)carbamoyl)-3-3-phenylquinoxalin-2-yl)-2-methylpentanoic acid]
20.1 to 200 nM | O=C(O)CCCCc1nc2cc(C(=O)N[C@H]3CC(=O)Nc4ccccc43)ccc2nc1-c1ccccc1 [compound 710, (S)-5-(7-((2-oxo-1,2,3,4-tetrahydroquinolin-4-yl)carbamoyl)-3-phenylquinoxalin-2-yl)pentanoic acid]
2.1 to 20 nM | C[C@H]1CN(c2ccccc2)CCN1C(=O)c1ccc2nc(-c3ccccc3)c(CCCCC(=O)O)nc2c1 [compound 549, (S)-5-(7-(2-methyl-4-phenylpiperazine-l-carbonyl)-3-phenylquinoxalin-2-yl)pentanoic acid]
2.1 to 20 nM | O=C(O)CCCCc1nc2cc(C(=O)N3CCN(c4ccccn4)CC3)ccc2nc1-c1ccc(Cl)cc1 [compound 554, 5-(3-(4-chlorophenyl)-7-(4-(pyridin-2-yl)piperazine-1-carbonyl)quinoxalin-2-yl)pentanoic acid]
0.1 to 2 nM | O=C(O)CCCCc1nc2cc(C(=O)N[C@H]3CCc4cc(Cl)ccc43)ccc2nc1-c1ccc(Cl)cc1 [compound 384, (S)-5-(7-((5-chloro-2,3-dihydro-1H-inden-1-yl)carbamoyl)-3-(4-chlorophenyl)quinoxalin-2-yl)pentanoic acid]
0.1 to 2 nM | Cc1cccc(N2CCN(C(=O)c3ccc4nc(-c5ccc(Cl)cc5)c(CCCCC(=O)O)nc4c3)CC2)c1 [compound 620, 5-(3-(4-chlorophenyl)-7-(4-(m-tolyl)piperazine-1-carbonyl)quinoxalin-2-yl)pentanoic acid]
2.1 to 20 nM | O=C(N[C@@H]1CCCc2cc(F)ccc21)c1ccc2nc(-c3ccccc3)c(CCCC(F)(F)C(=O)O)nc2c1 [compound 480, (R)-2,2-difluoro-5-(7-((6-fluoro-1,2,3,4-tetrahydronaphthalen-1-yl)carbamoyl)-3-phenylquinoxalin-2-yl)pentanoic acid]
2.1 to 20 nM | CC[C@H](NC(=O)c1ccc2nc(-c3ccc(Cl)cc3)c(CCCCC(=O)O)nc2c1)c1ccc(F)cc1 [compound 377]
2.1 to 20 nM | C[C@H]1CN(c2ccccc2)CCN1C(=O)c1ccc2nc(-c3ccc(Cl)cc3)c(CCCCC(=O)O)nc2c1 [compound 514, (S)-5-(3-(4-chlorophenyl)-7-(2-methyl-4-phenyl-piperazine-1-carbonyl)quinoxalin-2-yl)pentanoic acid]
